Structures can show the parent of a compound that is named as a salt.
Assays:
[1] = biological target: T1, wild type human RORγt LBD (Homo sapiens, UniProt P51449); assay: RORγt (LBD) Reporter Assay (GAL4-luciferase, HEK293T cells); assay type: cell-based; details: HEK293T cells; for inhibition at 6 µM: HEK-293T, read-out: RORγt (LBD) Reporter Assay, % inhibition @ 6 µM, 6 µM compound concentration
T1 construct: expressed in transfected cells; host or cells: HEK293T
T1 sequence (P51449 258-518): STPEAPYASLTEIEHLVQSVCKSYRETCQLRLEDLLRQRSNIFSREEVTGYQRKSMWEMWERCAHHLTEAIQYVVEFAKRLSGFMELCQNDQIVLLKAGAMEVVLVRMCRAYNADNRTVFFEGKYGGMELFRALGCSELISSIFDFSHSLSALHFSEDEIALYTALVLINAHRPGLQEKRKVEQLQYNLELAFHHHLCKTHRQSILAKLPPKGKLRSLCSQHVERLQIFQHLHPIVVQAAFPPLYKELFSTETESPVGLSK

[2] = biological target: T2, wild type human RORγt ligand binding domain (RORyt LBD) (Homo sapiens, UniProt P51449); assay: RORγt ThermoFluor assay (thermal shift, binding affinity KD)
T2 construct: His-tag (N); TurboTEV protease cleavage site (ENLYFQG) (N); made in house; host or cells: E. coli (pHIS1, modified pET vector)
T2 sequence (P51449 258-518): T1 sequence (P51449 258-518)

IC50 [1]	inhibition at 6 µM [1]	Kd [2]	Structure (SMILES)
1500 nM	110%	1700 nM	CON(C)c1nc2ccc(C(O)(c3ccc(C(F)(F)F)nc3)c3cncn3C)cc2c(N(C)OC)c1Cc1ccc(-n2cccn2)cc1 (centres unmarked) [Example 129, {2,4-Bis[methoxy(methyl)amino]-3-[4-(1H-pyrazol-1-yl)benzyl]quinolin-6-yl}(1-methyl-1H-imidazol-5-yl)[6-(trifluoromethyl)pyridin-3-yl]methanol]
510 nM	94%	640 nM	Cn1cncc1C(O)(c1ccc2nc(Cl)c(Cc3ccc(-n4cccn4)cc3)c(Cl)c2c1)c1ncccn1 (centres unmarked) [Example 130, {2,4-Dichloro-3-[4-(1H-pyrazol-1-yl)benzyl]quinolin-6-yl}(1-methyl-1H-imidazol-5-yl)pyrimidin-2-ylmethanol.TFA]
45 nM	108%	36 nM	CN(C)c1nc2ccc(C(O)(c3ccc(C(F)(F)F)nc3)c3cncn3C)cc2c(Cl)c1Cc1ccc(-n2cccn2)cc1 (centres unmarked) [Example 132, {4-Chloro-2-(dimethylamino)-3-[4-(1H-pyrazol-1-yl)benzyl]quinolin-6-yl}(1-methyl-1H-imidazol-5-yl)[6-(trifluoromethyl)pyridin-3-yl]methanol]
270 nM	97%	36 nM	Cn1cncc1C(O)(c1ccc(C(F)(F)F)nc1)c1ccc2nc(N3CC(F)(F)C3)c(Cc3ccc(-n4cccn4)cc3)c(Cl)c2c1 (centres unmarked) [Example 135a, {4-Chloro-2-(3,3-difluoroazetidin-1-yl)-3-[4-(1H-pyrazol-1-yl)benzyl]quinolin-6-yl}(1-methyl-1H-imidazol-5-yl)[6-(trifluoromethyl)pyridin-3-yl] methanol.TFA]
140 nM	94%	150 nM	Cc1cc(C(O)(c2ccc(Cl)cc2)c2cncn2C)cc2c(Cl)c(Cc3ccc(-n4cccn4)cc3)c(N3CCC3)nc12 (centres unmarked) [Example 136a]
170 nM	97%	9 nM	Cc1cc(C(O)(c2ccc(C(F)(F)F)nc2)c2cncn2C)cc2c(Cl)c(Cc3ccc(-n4cccn4)cc3)c(N3CCC3)nc12 (centres unmarked) [Example 137a, {2-Azetidin-1-yl-4-chloro-8-methyl-3-[4-(1H-pyrazol-1-yl)benzyl]quinolin-6-yl}(1-methyl-1H-imidazol-5-yl)[6-(trifluoromethyl)pyridin-3-yl]methanol]
130 nM	98%	130 nM	Cn1cncc1C(O)(c1ccc(Cl)cc1)c1ccc2nc(N3CCC3)c(Cc3ccc(-n4cccn4)cc3)c(Cl)c2c1 (centres unmarked) [Example 138a, {2-Azetidin-1-yl-4-chloro-3-[4-(1H-pyrazol-1-yl)benzyl]quinolin-6-yl}(4-chlorophenyl)(1-methyl-1H-imidazol-5-yl)methanol]
20 nM	98%	0.14 nM	Cc1ccc(C(O)(c2ccc3nc(Cl)c(Cc4ccc(C(F)(F)F)cc4)c(Cl)c3c2)c2cnnn2C)c(C)n1 (centres unmarked) [Example 139]
22 nM	99%	0.19 nM	Cc1ccc(C(O)(c2ccc3nc(N4CCC4)c(Cc4ccc(C(F)(F)F)cc4)c(Cl)c3c2)c2cnnn2C)c(C)n1 (centres unmarked) [Example 140a, {2-Azetidin-1-yl-4-chloro-3-[4-(trifluoromethyl)benzyl]quinolin-6-yl}(2,6-dimethylpyridin-3-yl)(1-methyl-1H-1,2,3-triazol-5-yl)methanol]
> 6000 nM	42%	11000 nM	Cc1ccc(C(O)(c2ccc3nc(N4CCC4)c(Cc4ccc(-n5cccn5)cc4)c(Cl)c3c2)c2cnnn2C)c(C)n1 (centres unmarked) [Example 141a, {2-Azetidin-1-yl-4-chloro-3-[4-(1H-pyrazol-1-yl)benzyl]quinolin-6-yl}(2,6-dimethylpyridin-3-yl)(1-methyl-1H-1,2,3-triazol-5-yl)methanol]
	101%	7.2 nM	Cc1ccc(C(O)(c2ccc3nc(NC4CC4)c(Cc4ccc(C(F)(F)F)cc4)c(Cl)c3c2)c2cnnn2C)c(C)n1 (centres unmarked) [Example 143a, {4-Chloro-2-(cyclopropylamino)-3-[4-(trifluoromethyl)benzyl]quinolin-6-yl}(2,6-dimethylpyridin-3-yl)(1-methyl-1H-1,2,3-triazol-5-yl)methanol]
74 nM	99%	12 nM	Cc1ccc(C(O)(c2ccc3nc(Cl)c(Cc4ccc(C(F)(F)F)cc4)c(NC4CC4)c3c2)c2cnnn2C)c(C)n1 (centres unmarked) [Example 144a, {2-Chloro-4-(cyclopropylamino)-3-[4-(trifluoromethyl)benzyl]quinolin-6-yl}(2,6-dimethylpyridin-3-yl)(1-methyl-1H-1,2,3-triazol-5-yl)methanol]
2.4 nM	96%	0.34 nM	COc1nc2ccc(C(O)(c3cncn3C)c3cncn3C)cc2c(Cl)c1Cc1ccc(C(F)(F)F)cc1 [Example 149, (4-Chloro-2-methoxy-3-(4-(trifluoromethyl)benzyl)quinolin-6-yl)bis(1-methyl-1H-imidazol-5-yl)methanol]
4800 nM	70%	38000 nM	Cn1cncc1C(O)(c1ccc2nc(C(F)(F)F)c(Cc3ccccc3)c(O)c2c1)c1ccccn1 (centres unmarked) [Example 152, 3-Benzyl-6-(hydroxy(1-methyl-1H-imidazol-5-yl)(pyridin-2-yl)methyl)-2-(trifluoromethyl)quinolin-4-ol^.TFA]
> 6000 nM	44%	15000 nM	Cn1cncc1C(O)(c1ccc(C(F)(F)F)nc1)c1ccc2nc(-c3nccn3C)c(Cc3ccccc3)c(C#N)c2c1 (centres unmarked) [Example 153, 3-Benzyl-6-(hydroxy(1-methyl-1H-imidazol-5-yl)(6-(trifluoromethyl)pyridin-3-yl)methyl)-2-(1-methyl-1H-imidazol-2-yl)quinoline-4-carbonitrile^.TFA]
~7 nM	93%	3.9 nM	COc1nc2ccc(C(O)(c3ccc(F)cc3)C3CCN(C(C)=O)CC3)cc2c(Cl)c1Cc1ccc(-n2cccn2)cc1 (centres unmarked) [Example 157a, 1-(4-((3-(4-(1H-Pyrazol-1-yl)benzyl)4-chloro-2-methoxyquinolin-6-yl)(4-fluorophenyl)(hydroxy)methyl)piperidin-1-yl)ethanone]
57 nM	97%	21 nM	COc1nc2ccc(C(O)(c3ccc(F)cc3)c3cccnc3)cc2c(Cl)c1Cc1ccc(-n2cccn2)cc1 (centres unmarked) [Example 158a, (3-(4-(1H-Pyrazol-1-yl)benzyl)-4-chloro-2-methoxyquinolin-6-yl)(4-fluorophenyl)(pyridin-3-yl)methanol]
120 nM	107%	29 nM	COc1ccc(C(O)(c2cccnc2)c2ccc3nc(OC)c(Cc4ccc(-n5cccn5)cc4)c(Cl)c3c2)cc1OC (centres unmarked) [Example 159a, (3-(4-(1H-Pyrazol-1-yl)benzyl)-4-chloro-2-methoxyquinolin-6-yl)(3,4-dimethoxyphenyl)(pyridin-3-yl)methanol]
59 nM	112%	49 nM	COc1nc2ccc(C(O)(c3ccc(F)cc3)c3cncn3C)cc2c(Cl)c1Cc1ccc(-n2cccn2)cc1 (centres unmarked) [Example 160a, (3-(4-(1H-Pyrazol-1-yl)benzyl)-4-chloro-2-methoxyquinolin-6-yl)(4-fluorophenyl)(1-methyl-1H-imidazol-5-yl)methanol]
57 nM	96%	15 nM	COc1nc2ccc(C(O)(c3cccnc3)c3ccc(Cl)c(Cl)c3)cc2c(Cl)c1Cc1ccc(-n2cccn2)cc1 (centres unmarked) [Example 161a, (3-(4-(1H-Pyrazol-1-yl)benzyl)-4-chloro-2-methoxyquinolin-6-yl)(3,4-dichlorophenyl)(pyridin-3-yl)methanol]

Structure (SMILES)	IC50 [1]	inhibition at 6 µM [1]	Kd [2]
Cc1cc(C(O)(c2ccc(Cl)cc2)c2cncn2C)cc2c(Cl)c(Cc3ccc(-n4cccn4)cc3)c(S(C)(=O)=O)nc12 (centres unmarked) [Example 142, {4-Chloro-8-methyl-2-(methylsulfonyl)-3-[4-(1H-pyrazol-1-yl)benzyl]quinolin-6-yl}(4-chlorophenyl)(1-methyl-1H-imidazol-5-yl)methanol]	1600 nM	87%	1500 nM
COc1nc2ccc(C(O)(c3oc(C)nc3C)c3cnnn3C)cc2c(Cl)c1Cc1ccc(C(F)(F)F)cc1 (centres unmarked) [Example 156a, (4-chloro-2-methoxy-3-(4-(trifluoromethyl)benzyl)quinolin-6-yl)(2,4-dimethylozazol-5-yl)(1-methyl-1H-1,2,3-triazol-5-yl)methanol]	6.6 nM	94%	0.63 nM

From patent publication EP3057951B1, “METHYLENE LINKED QUINOLINYL MODULATORS OF ROR-GAMMA-T” (Janssen Pharmaceutica NV, priority 2013, dated 2015)
